Test results as given in article PMC6304418, “A Novel Compound Targeting Protease Receptor 1 Activators for the Treatment of Glioblastoma” (Frontiers in Neurology, 2018).
“Also recorded” adds a separate entry of the source. Where a SMILES comes first, the peptide text is derived from it. The star is where a group is joined. Tos = Cc1ccc(S(=O)(=O)*)cc1; CH2Cl = ClC*

Tests used:
[1] = test system: human normal pooled citrated plasma; experiment: Coagulation in plasma (PT, aPTT, TT)
Description: HemosIL normal control (Instrumentation Laboratory), was used as human normal pooled citrated plasma from healthy donors. The lyophilized human plasma containing buffer, stabilizers and preservatives, was reconstituted using standard laboratory methods. The plasma was exposed in-vitro to indicated concentrations of SIXAC for 10 min. Next, prothrombin time (PT), activated partial thromboplastin time (aPTT) and thrombin time (TT) were measured. All tests were carried out with an ACLTOP® 500 autoanalyzerat in the Sheba medical center (Israel) MegaLab according to standard operating procedures (SOP). The results represent an average of 5 measures.

[2] = test system: CNS-1 glioma in Lewis rats; experiment: In-vivo imaging study (MRI) in CNS-1 GBM rat model
Description: Adult Lewis rats (270–335 g, Harlan, Jerusalem, Israel) were housed in a standard conditions and fed a standard diet. Water was available ad libitum. Ambient temperature was set to 22°C to 23°C with day/night light control. The protocols of this study were approved by the Sheba Medical Center Committee on the Use and Care of Animals (permit No: 972/15) according to the ARRIVE Guidelines. Maximum efforts were made in order to minimize suffering and pain. The humane endpoints were the inability to rise or ambulate and a severe weight loss (20% of initial body weight).
The rats were anesthetized via IM injection of Ketamine-Xylazine (100 mg/kg, 16 mg/kg, respectively). A midline scalp incision was made, and a 1 mm burr hole was drilled (coordinates 1 mm lateral × 3 mm posterior to the Bregma). Tumor implantation was performed using a 30 gauge needle attached to a 25 μl syringe containing 10 μl of CNS-1 pellet 5 × 10^7cells/ml. The rats were positioned into a stereotactic frame in order to inject the cells at the right corpus striatum 5.5 mm deep in the brain tissue. […] The needle was gently pulled out 1 min after the pump was stopped. The burr hole was then sealed with bone wax and the skin was sutured.
MRI was performed using a clinical interventional 1.5T MR system. The rats were anesthetized and Gd-based contrast agent was injected IP (Gd-DOTA, 0.02 mmol/kg, Dotarem, Guerbert). MRI sequences included contrast enhanced T1-weighted MRI for depiction of the tumor, T2-weighted MRI for depiction of edema and gradient-echo MRI for depiction of possible hemorrhages. The first MRI scan was used to rank the tumors into three categories based on the size evaluation in order to form groups with a similar distribution of initial tumor size. Regions of interest (ROIs) were plotted over enhanced T1 and T2 weighted MR images. The volume of the tumors, calculated from the T1-weighted images, was then subtracted from the enhancing volume, calculated from the T2-weighted images, in order to determine the volume of surrounding edema.
The animals were implanted with osmotic pumps attached to brain infusion tube (Alzet, Cupertino, CA, USA). Implantation was performed 5 days after tumor inoculation. […]
Rats were allocated to three groups. […] 7 days following induction of treatment (day 12) a follow-up MRI imaging (2nd) was performed and the size of the tumor and edema surrounding the tumor were analyzed by standard ROI manual techniques as described above. In order to eliminate the effect of initial tumor and edema sizes variance, the tumor and edema sizes increase were calculated by using the ratio of the 2nd MRI scan divided by the 1st MRI scan ([41], [42]).

[3] = test system: CNS-1 tumors in rat brains; experiment: Histopathology of CNS-1 GBM rat brains (H&E, Ki67); format: in vivo
Description: Rats were allocated to three groups. 1. Control group (n = 15) treated with alzet-pumps contain saline. 2. Moderate dose treated group (n = 16) treated with alzet-pump containing SIXAC (2μg/kg/day). 3. High dose treated group (n = 14) treated with alzet-pumps contain SIXAC (20μg/kg/day). Survival was registered daily and the brains were dissected immediately after death determination and were placed in 4% PFA and kept at 4°C. Upon MRI scanning the brains were moved to PBS containing tubes, scanning was performed and ROI were quantified.
Formalin-fixed, paraffin-embedded brains were serially sectioned into 4 μm sections and stained with Hematoxylin and Eosin (H&E). Tumor localization and detailed evaluation was conducted by a senior neuropathologist (NS). Mitosis rate was assessed manually by 2 observers who analyzed 10 fields from each examined brain. Serial 4 μm sections were used for immune-histochemical staining using a commercially available monoclonal rabbit anti-Ki67 antibody (clone SP6,# RM-9106-S, Thermo Scientific, 1:300) according to standard procedures and fully automated protocol. A positive control was added on the right side of the slides for immune-histochemistry. The slides were automatically scanned via Aperio Versa 200 System (leica) using X20 and X40 equivalent objectives. Digital images were captured with Leica DM6000B microscope by AperioImageScope software. The Ki67 index was defined as positive stained nuclei (DAB positive)/all stained nuclei. Ten fields from each tested brain were used for analysis of Ki67 index. The indices were automatically calculated by means of ImmunoRatio application (Version 1.0c) ([43]).

For `Cc1ccc(S(=O)(=O)N[C@@H](C)C(=O)N[C@H](C(=O)N[C@@H](CC(C)C)C(=O)N[C@@H](CC(=O)O)C(=O)N2CCC[C@H]2C(=O)N[C@@H](CCCNC(=N)N)C(=O)CCl)[C@@H](C)O)cc1` [SIXAC] (Tos-ATLDPR-CH2Cl), the “margin of coagulation-affecting concentration over IC50 for thrombin inhibition” value ([1]; 10^−4M vs. IC50 for thrombin inhibition) was “at least 4.5 orders of magnitude”, the “concentration at which coagulation tests (PT, aPTT, TT) are affected” value ([1]; human plasma exposed 10 min, affected only at this concentration, average of 5 measures) was 10^−4 M and the “effect on PT, aPTT and TT (in words)” value ([1]; human plasma exposed 10 min, concentrations equivalent to those used to treat animals, average of 5 measures) was “no clinical significant effects; also recorded: The effect was minimal for the therapeutic dosages used in the experiment”. The “tumor enhancement means of ratios, moderate dose vs. low dose and saline (in words)” value ([2]; 2μg/kg/day vs. 0.2μg/kg/day and saline) was “non-significant reduction in tumor enhancement means of ratios”, the “edema means of ratios, moderate dose vs. low dose and saline (in words)” value ([2]; 2μg/kg/day vs. 0.2μg/kg/day and saline, p < 0.05) was “Significant reduction in edema means of ratios” and the “edema volume ratio (2nd/1st MRI, T2)” value ([2]; 2μg/kg/day, intracranial Alzet pump, 7 days, day 12/day 5, n = 9, control 8.8 ± 1.9, p < 0.04 (t-test)) was 4.9 ± 1. For the same molecule, the “tumor volume ratio (2nd/1st MRI, enhancing lesions, T1)” value ([2]; 2μg/kg/day, intracranial Alzet pump, 7 days, day 12/day 5, n = 9, control 12.2 ± 2.4, p = 0.16 (t-test)) was 9.8 ± 1.2, the “mitosis rate (number of mitosis/field, H&E)” value ([3]; SIXAC treated rats, 10 fields per brain, mean ± SEM, control 7.75 ± 1.45, p = 0.03) was 4.9 ± 0.2 mitosis/field and the Ki67 index ([3]; SIXAC treated rats, positive/all stained nuclei, ImmunoRatio, ten fields per brain, mean ± SEM, control 21.55 ± 0.11, p < 0.001) was 12.74 ± 0.23. The “H&E finding in a long survivor rat” value ([3]; high dose 20μg/kg/day long survivor, sacrificed at day 40) was “large cystic area containing residual tissue with foamy macrophages”.
